Experimental data reported in patent publication US20210330661A1 (China Medical University, priority 2020, published 2021).
Where two headings read alike, the source gives them in different places.

Tests used:
SARS-CoV-2 M^pro [1] = target: T1, SARS-CoV-2 M^pro (Severe acute respiratory syndrome coronavirus 2, UniProt P0DTD1); test: FRET assay of SARS-CoV-2 Mpro activity with boceprevir or narlaprevir; assay type: biochemical; settings: 50 μM drug; 1 μM Mpro; FIG. 6; read-out: inhibitory effect on SARS-CoV-2 Mpro activity
[2] = system: SARS-CoV-2 (strain NTU02) in Vero E6 cells; assay type: cell-based; settings: pre-treatment, 48 hours, MOI 0.0003, FIG. 13
[3] = system: SARS-CoV-2 (strain NTU02) in Vero E6 cells; assay type: cell-based; settings: pre-treated cells, various concentrations; compared to DMSO control; 3-day post infection; FIG. 14
[4] = system: SARS-CoV-2 (strain NTU02) in Vero E6 cells; test: microbe, parasite or virus in culture; assay type: cell-based
SARS-CoV-2 M^pro [5] = target: T1, SARS-CoV-2 M^pro; test: FRET assay of SARS-CoV-2 Mpro activity with tafenoquine or hydroxychloroquine; assay type: biochemical; settings: FIG. 1
[6] = system: SARS-CoV-2 (strain NTU02) in Vero E6 cells; assay type: cell-based; settings: 5 μM; compared with DMSO; 3-day post infection; FIG. 12
SARS-CoV-2 M^pro [7] = target: T1, SARS-CoV-2 M^pro; test: Limited proteolysis assay by trypsin digestion; settings: drug 0, 30, 60, 90 μM; FIG. 5A, 5B
Description: To further probe the conformational changes of SARS-CoV-2 M^pro, the limited proteolysis assay by trypsin digestion is performed. […] Proteolysis is performed by mixing SARS-CoV-2 M^pro (0.8 mg/ml) with trypsin at a protease-to-protein ratio of 1:10 (w/w) in a reaction buffer (25 mM Tris at pH 8.0, 150 mM NaCl) at 37° C. for 30 minutes. The reaction is stopped by adding SDS sample loading buffer and boiling at 95° C. for 10 minutes and subjected to SDS-PAGE (4%-20%).

SARS-CoV-2 M^pro [8] = target: T1, SARS-CoV-2 M^pro; test: Soluble fraction / stability of Mpro in presence of drug; settings: concentration up to 500 μM; FIG. 4
SARS-CoV-2 M^pro [9] = target: T1, SARS-CoV-2 M^pro; assay type: binding; settings: various concentrations; FIG. 2A, 2B

## CC(C)(C)NC(=O)N[C@H](C(=O)N1C[C@H]2[C@@H]([C@H]1C(=O)NC(CC1CCC1)C(=O)C(N)=O)C2(C)C)C(C)(C)C (some centres unmarked) [boceprevir]
SARS-CoV-2 M^pro [1]
  inhibition at 50 µM: 76.5 ± 4.8%

## CCCC[C@H](NC(=O)[C@@H]1[C@@H]2[C@H](CN1C(=O)[C@@H](NC(=O)NC1(CS(=O)(=O)C(C)(C)C)CCCCC1)C(C)(C)C)C2(C)C)C(=O)C(=O)NC1CC1 [narlaprevir]
[2]; 40 μM narlaprevir
  inhibition rate against viral RNA production: approximately 76.4%
[3]
  cytopathic effect induced by SARS-CoV-2 infection: significantly lesser
SARS-CoV-2 M^pro [1]
  inhibition at 50 µM: 64.1 ± 2.5%

## COc1cc(C)c2c(Oc3cccc(C(F)(F)F)c3)c(OC)cc(NC(C)CCCN)c2n1 (centres unmarked) [tafenoquine]
[4]; 2.5 μM, day not given, FIG. 10
  viral RNA versus DMSO-treated group: no significant difference
[4]; Day 1 to Day 2 after infection, FIG. 10
  yield of viral RNA in cell supernatant: significantly represses
[4]; Severe acute respiratory syndrome coronavirus 2, Vero C1008, 48 h, read-out: half maximal effective concentration (EC50)
  EC50: ~2500 nM
SARS-CoV-2 M^pro [5]; 90 μM, 4 μM Mpro, read-out: inhibition against SARS-CoV-2 Mpro
  inhibition at 90 µM: ~90%
[6]
  SARS-CoV-2-induced cytopathic effect: significant decrease

## CCC(CC)COC(=O)[C@H](C)N[P@](=O)(OC[C@H]1O[C@@](C#N)(c2ccc3c(N)ncnn23)[C@H](O)[C@@H]1O)Oc1ccccc1 [remdesivir]
[2]; 1 μM remdesivir
  inhibition rate against viral RNA production: ~26.3%

## CCN(CCO)CCCC(C)Nc1ccnc2cc(Cl)ccc12 (centres unmarked) [hydroxychloroquine]
SARS-CoV-2 M^pro [7]
  cleavage of Mpro by trypsin: no concentrations of hydroxychloroquine tested reduce the cleavage
SARS-CoV-2 M^pro [8]
  stability of Mpro: does not influence the stability
SARS-CoV-2 M^pro [5]; various concentrations
  inhibitory effect on SARS-CoV-2 Mpro: does not demonstrate any significant inhibitory effects
SARS-CoV-2 M^pro [9]
  shift in melting temperature / thermal stability of Mpro: no influence on the thermal stability
